Structures are written as SMILES.

The nature of experiment [1]: Relative ihibition of bovine retina PDE6 and PDE5 of human platelets.
Experiment [2] is described as follows: Relative inhibition of bovine heart PDE1 and PDE5 of human platelets.
Experiment [3] concerns the target cGMP-specific 3',5'-cyclic phosphodiesterase (Homo sapiens, UniProt O76074). In words: Inhibition of phosphodiesterase type 5 (PDE5) of human platelets.
Experiment [4] in a line: Relative inhibition of PDE4 of rat kidney and PDE5 of human platelets.
A short description of experiment [5]: Relative inhibition of PDE2 of rat kidney and PDE5 of human platelets.

As to `CCCOc1ccc(S(=O)(=O)N2CCN(C)CC2)cc1-c1nc(O)c2cc3c(cc2n1)ncn3Cc1ccccc1`, the IC50 ratio was 20 in experiment [1], 3400 in experiment [2], 600 in experiment [4] and over 10000 in experiment [5]. The midpoint of inhibition in experiment [3], the IC50, lay at 5.3 nM.
For `CCCOc1ccccc1-c1nc(O)c2cc3[nH]cnc3cc2n1`, the IC50 ratio in experiment [1] turned out to be 1; in experiment [2], 200; in experiment [4] it was 100; in experiment [5], 360. Moreover, in experiment [3], it took 44 nM to reach half-maximal inhibition (IC50).
Take `CCCOc1ccc(C(N)=O)cc1-c1nc(O)c2cc3c(cc2n1)ncn3Cc1ccc(F)cc1`: the IC50 ratio was 60 in experiment [1], over 100000 in experiment [2], 4200 in experiment [4] and over 100000 in experiment [5]. Further, in experiment [3], the IC50 (as a rule, the point on the concentration scale where inhibition reaches its midpoint) is 0.48 nM.
Regarding `CCCOc1ccc(S(=O)(=O)N2CCN(C)CC2)cc1-c1nc(O)c2cc3[nH]cnc3cc2n1`, the IC50 ratio in experiment [1] was determined as 2; in experiment [2], 90; in experiment [4], 1600; in experiment [5], 1300.

Source of the values: ChEMBL document CHEMBL1133589, “N-3-substituted imidazoquinazolinones: potent and selective PDE5 inhibitors as potential agents for treatment of erectile dysfunction” (J Med Chem, 2000).
